Source: US20130096149A1, “HETEROARYL COMPOUNDS AND COMPOSITIONS AS PROTEIN KINASE INHIBITORS” (NOVARTIS AG, priority 2010, published 2013)

Target: b-Raf(V600E) (Homo sapiens, UniProt P15056, V600E)
Assay: Raf/Mek Amplified Luminescence Proximity Homogeneous Assay (Alpha Screen)
Assay type: biochemical
Settings: b-Raf(V600E) approximately 4 pM; biotinylated Mek, kinase dead approximately 10 nM; ATP 10 μM; pre-incubation 60 minutes; reaction 3 hours at room temperature; read-out: mut-bRaf IC50
Method: Raf/Mek Amplified Luminescence Proximity Homogeneous Assay
Assay buffer: 50 mM Tris, pH 7.5, 15 mM MgCl2, 0.01% Bovine Serum Albumin (BSA), 1 mM dithiothreitol (DTT) Stop buffer: 60 mM ethylenediaminetetraacetic acid (EDTA), 0.01% Tween® 20 Bead buffer: 50 mM Tris, pH 7.5, 0.01% Tween® 20 […]
biotinylated Mek, kinase dead
Alpha Screen detection kit (available from PerkinElmer™, #6760617R)
Anti phospho-MEK1/2 (available from Cell Signaling Technology, Inc. #9121) 384 well assay plates (White Greiner® plates, #781207) […]
b-Raf(V600E) approximately 4 pM […]
biotinylated Mek, Kinase dead approximately 10 nM
Pre-incubation time with compounds 60 minutes at room temperature
Reaction time 1 or 3 hours at room temperature
Raf and biotinylated Mek, kinase dead, were combined at 2× final concentrations in assay buffer (50 mM Tris, pH 7.5, 15 mM MgCl2, 0.01% BSA and 1 mM DTT) and dispensed 10 μl per well in assay plates (Greiner white 384 well assay plates #781207) containing 0.5 μl of 40× of a raf kinase inhibitor test compound diluted in 100% DMSO. The plate was incubated for 60 minutes at room temperature.
The Raf kinase activity reaction was started by the addition of 10 μL per well of 2×ATP diluted in assay buffer. After 3 hours (bRaf(V600E)) or 1 hour (c-Raf), the reactions were stopped with the addition of 10 μL of stop reagent (60 mM EDTA). Phosphorylated product was measured using a rabbit anti-p-MEK (Cell Signaling, #9121) antibody and the Alpha Screen IgG (ProteinA) detection Kit (PerkinElmer #6760617R), by the addition of 30 μL to the well of a mixture of the antibody (1:2000 dilution) and detection beads (1:2000 dilution of both beads) in bead buffer (50 mM Tris, pH 7.5, 0.01% Tween20). The additions were carried out under dark conditions to protect the detection beads from light. A lid was placed on top of the plate and incubated for 1 hour at room temperature, then the luminescence was read on a PerkinElmer Envision instrument. The concentration of each compound for 50% inhibition (IC50) was calculated by non-linear regression using XL Fit data analysis software.

b-Raf(V600E), sequence (P15056 whole entry V600E): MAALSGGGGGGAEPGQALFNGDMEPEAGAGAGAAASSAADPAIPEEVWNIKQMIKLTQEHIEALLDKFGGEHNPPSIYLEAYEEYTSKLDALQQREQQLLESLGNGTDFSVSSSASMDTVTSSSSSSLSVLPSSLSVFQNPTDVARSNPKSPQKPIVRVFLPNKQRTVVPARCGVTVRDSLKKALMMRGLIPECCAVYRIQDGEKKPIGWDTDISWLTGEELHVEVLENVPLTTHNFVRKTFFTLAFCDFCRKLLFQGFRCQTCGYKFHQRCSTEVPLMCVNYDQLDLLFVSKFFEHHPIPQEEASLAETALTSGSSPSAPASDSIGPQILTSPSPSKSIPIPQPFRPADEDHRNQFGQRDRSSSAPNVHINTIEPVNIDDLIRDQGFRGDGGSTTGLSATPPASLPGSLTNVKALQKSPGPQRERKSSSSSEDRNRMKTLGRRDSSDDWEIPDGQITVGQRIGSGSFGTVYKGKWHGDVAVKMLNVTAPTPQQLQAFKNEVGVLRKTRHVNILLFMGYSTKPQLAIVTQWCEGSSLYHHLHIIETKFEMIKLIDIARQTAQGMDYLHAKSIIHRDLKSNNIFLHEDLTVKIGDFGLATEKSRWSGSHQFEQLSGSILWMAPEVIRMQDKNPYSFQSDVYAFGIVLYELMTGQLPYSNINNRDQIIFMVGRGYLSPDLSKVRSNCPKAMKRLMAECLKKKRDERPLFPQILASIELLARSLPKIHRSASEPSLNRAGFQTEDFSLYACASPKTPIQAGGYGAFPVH

| IC50 | Compound |
| --- | --- |
| 0.25 nM | COC(=O)N[C@@H](C)CNc1nccc(-c2sc(C(C)(C)C)nc2-c2cc(F)cc(NS(C)(=O)=O)c2Cl)n1 [Example 1, (S)-methyl 1-(4-(2-tert-butyl-4-(2-chloro-5-fluoro-3-(methylsulfonamido)phenyl)thiazol-5-yl)pyrimidin-2-ylamino)propan-2-ylcarbamate] |
| 0.44 nM | CCCS(=O)(=O)Nc1cc(F)cc(-c2nc(C(C)(C)C)sc2-c2ccncn2)c1Cl [Example 2, N-(3-(2-tert-butyl-5-(pyrimidin-4-yl)thiazol-4-yl)-2-chloro-5-fluorophenyl)propane-1-sulfonamide] |
| 0.22 nM | COC(=O)N[C@@H](C)CNc1nccc(-c2sc(C3CC3)nc2-c2cc(F)cc(NS(C)(=O)=O)c2Cl)n1 [Example 3, (S)-methyl 1-(4-(4-(2-chloro-5-fluoro-3-(methylsulfonamido)phenyl)-2-cyclopropylthiazol-5-yl)pyrimidin-2-ylamino)propan-2-ylcarbamate] |
| 0.12 nM | COC(=O)N[C@@H](C)CNc1nccc(-c2sc(C3CC3)nc2-c2cc(Cl)cc(NS(C)(=O)=O)c2F)n1 [Example 4, (S)-methyl 1-(4-(4-(5-chloro-2-fluoro-3-(methylsulfonamido)phenyl)-2-cyclopropylthiazol-5-yl)pyrimidin-2-ylamino)propan-2-ylcarbamate] |
| 0.82 nM | COC(=O)N[C@@H](C)CNc1nccc(-c2oc(C3CC3)nc2-c2cc(Cl)cc(NS(C)(=O)=O)c2F)n1 [Example 5, (S)-methyl 1-(4-(4-(5-chloro-2-fluoro-3-(methylsulfonamido)phenyl)-2-cyclopropyloxazol-5-yl)pyrimidin-2-ylamino)propan-2-ylcarbamate] |
| 28 nM | CCCS(=O)(=O)Nc1cccc(-c2nc(C3CC3)oc2-c2ccnc(NC)n2)c1F [Example 6, N-(3-(2-cyclopropyl-5-(2-(methylamino)pyrimidin-4-yl)oxazol-4-yl)-2-fluorophenyl)propane-1-sulfonamide] |
| 0.22 nM | CCCS(=O)(=O)Nc1cccc(-c2nc(C(C)(C)C)sc2-c2ccnc(NC[C@H](C)NC(=O)OC)n2)c1Cl [Example 7, (S)-methyl 1-(4-(2-tert-butyl-4-(2-chloro-3-(propylsulfonamido)phenyl)thiazol-5-yl)pyrimidin-2-ylamino)propan-2-ylcarbamate] |
| 0.14 nM | CCCS(=O)(=O)Nc1cc(F)cc(-c2nc(C(C)(C)C)sc2-c2ccnc(NC)n2)c1Cl [Example 8] |
| 0.14 nM | CCCS(=O)(=O)Nc1cc(F)cc(-c2nc(C(C)(C)C)sc2-c2ccnc(N)n2)c1Cl [Example 9] |
| 0.33 nM | CCCS(=O)(=O)Nc1cc(F)cc(-c2nc(C(C)(C)C)sc2-c2ccnc(NC[C@H](C)NC(=O)OC)n2)c1Cl [Example 10] |
| 6 nM | CNc1nccc(-c2sc(C(C)(C)C)nc2-c2cc(F)cc(NS(C)(=O)=O)c2Cl)n1 [Example 11] |
| 9 nM | CC(C)(C)c1nc(-c2cc(F)cc(NS(C)(=O)=O)c2Cl)c(-c2ccnc(N)n2)s1 [Example 12] |
| 0.13 nM | CCCS(=O)(=O)Nc1cc(F)cc(-c2nc(C3CC3)sc2-c2ccnc(N)n2)c1Cl [Example 13] |
| 0.091 nM | CCCS(=O)(=O)Nc1cc(F)cc(-c2nc(C3CC3)sc2-c2ccnc(NC)n2)c1Cl [Example 14] |
| 0.077 nM | CCCS(=O)(=O)Nc1cc(F)cc(-c2nc(C3CC3)sc2-c2ccnc(NC[C@H](C)NC(=O)OC)n2)c1Cl [Example 15] |
| 15 nM | CS(=O)(=O)Nc1cc(F)cc(-c2nc(C3CC3)sc2-c2ccnc(N)n2)c1Cl [Example 16] |
| 2.7 nM | CS(=O)(=O)Nc1cc(F)cc(-c2nc(C3CC3)oc2-c2ccnc(N)n2)c1Cl [Example 17] |
| 18 nM | CNc1nccc(-c2oc(C3CC3)nc2-c2cc(F)cc(NS(C)(=O)=O)c2Cl)n1 [Example 18] |
| 1.5 nM | COC(=O)N[C@@H](C)CNc1nccc(-c2oc(C3CC3)nc2-c2cc(F)cc(NS(C)(=O)=O)c2Cl)n1 [Example 19] |
| 3 nM | CNc1nccc(-c2sc(C3CC3)nc2-c2cc(Cl)cc(NS(C)(=O)=O)c2F)n1 [Example 20] |
| 5.8 nM | CS(=O)(=O)Nc1cc(Cl)cc(-c2nc(C3CC3)sc2-c2ccnc(N)n2)c1F [Example 21] |
| 3.3 nM | CS(=O)(=O)Nc1cc(Cl)cc(-c2nc(C3CC3)oc2-c2ccnc(N)n2)c1F [Example 22] |
| 18 nM | CNc1nccc(-c2oc(C3CC3)nc2-c2cc(Cl)cc(NS(C)(=O)=O)c2F)n1 [Example 23] |
| 46 nM | CC(C)(C)c1nc(-c2cccc(NS(C)(=O)=O)c2Cl)c(-c2ccnc(N)n2)s1 [Example 24] |
| 0.32 nM | COC(=O)N[C@@H](C)CNc1nccc(-c2sc(C(C)(C)C)nc2-c2cccc(NS(C)(=O)=O)c2Cl)n1 [Example 25] |
| 0.65 nM | CCCS(=O)(=O)Nc1cccc(-c2nc(C(C)(C)C)sc2-c2ccnc(N)n2)c1Cl [Example 26] |
| 44 nM | CNc1nccc(-c2sc(C(C)(C)C)nc2-c2cccc(NS(C)(=O)=O)c2Cl)n1 [Example 27] |

| IC50 | Compound |
| --- | --- |
| 1.1 nM | CCCS(=O)(=O)Nc1cccc(-c2nc(C(C)(C)C)sc2-c2ccnc(NC)n2)c1Cl [Example 28] |
| 3.4 nM | CCCS(=O)(=O)Nc1cccc(-c2nc(C3CC3)sc2-c2ccnc(N)n2)c1Cl [Example 29] |
| 1.2 nM | CCCS(=O)(=O)Nc1cccc(-c2nc(C3CC3)oc2-c2ccnc(N)n2)c1Cl [Example 30] |
| 1.3 nM | CCCS(=O)(=O)Nc1cccc(-c2nc(C3CC3)oc2-c2ccnc(NC[C@H](C)NC(=O)OC)n2)c1Cl [Example 31] |
| 44 nM | CS(=O)(=O)Nc1cccc(-c2nc(C3CC3)sc2-c2ccnc(N)n2)c1Cl [Example 32] |
| 0.42 nM | COC(=O)N[C@@H](C)CNc1nccc(-c2sc(C3CC3)nc2-c2cccc(NS(C)(=O)=O)c2Cl)n1 [Example 33] |
| 0.62 nM | CCCS(=O)(=O)Nc1cccc(-c2nc(C(C)(C)C)sc2-c2ccnc(NC[C@H](C)NC(=O)OC)n2)c1F [Example 34] |
| 1.8 nM | CCCS(=O)(=O)Nc1cccc(-c2nc(C(C)(C)C)sc2-c2ccnc(N)n2)c1F [Example 35] |
| 0.43 nM | COC(=O)N[C@@H](C)CNc1nccc(-c2sc(C(C)(C)C)nc2-c2cccc(NS(C)(=O)=O)c2F)n1 [Example 36] |
| 5 nM | CCCS(=O)(=O)Nc1cccc(-c2nc(C3CC3)sc2-c2ccnc(NC)n2)c1F [Example 37] |
| 0.59 nM | CCCS(=O)(=O)Nc1cccc(-c2nc(C3CC3)oc2-c2ccnc(NC[C@H](C)NC(=O)OC)n2)c1F [Example 38] |
| 2.1 nM | CCCS(=O)(=O)Nc1cccc(-c2nc(C3CC3)oc2-c2ccnc(N)n2)c1F [Example 39] |
| 0.12 nM | CCCS(=O)(=O)Nc1cccc(-c2nc(C3CC3)sc2-c2ccnc(NC[C@H](C)NC(=O)OC)n2)c1F [Example 40] |
| 11 nM | CCCS(=O)(=O)Nc1cccc(-c2nc(C3CC3)sc2-c2ccnc(N)n2)c1F [Example 41] |
| 3.1 nM | COCC(=O)N[C@@H](C)CNc1nccc(-c2oc(-c3ccc(F)cc3)nc2-c2cc(C)cc(NS(C)(=O)=O)c2Cl)n1 [Example 42] |
| 62 nM | CCCNc1nccc(-c2oc(C3CC3)nc2-c2cccc(NS(C)(=O)=O)c2Cl)n1 [Example 43] |
| 1.3 nM | COC(=O)N[C@@H](C)CNc1nccc(-c2oc(C3CC3)nc2-c2cccc(NS(C)(=O)=O)c2Cl)n1 [Example 44] |
| 17 nM | CS(=O)(=O)Nc1cccc(-c2nc(C3CC3)oc2-c2ccnc(N)n2)c1Cl [Example 45] |
| 0.95 nM | CS(=O)(=O)Nc1cccc(-c2nc(C3CC3)oc2-c2ccnc(NCCC#N)n2)c1Cl [Example 46] |
| 0.13 nM | CCCS(=O)(=O)Nc1cc(Cl)cc(-c2nc(C(C)(C)C)sc2-c2ccnc(N)n2)c1Cl [Example 47] |
| 0.7 nM | CCCS(=O)(=O)Nc1cc(Cl)cc(-c2nc(C(C)(C)C)sc2-c2ccnc(NC[C@H](C)NC(=O)OC)n2)c1Cl [Example 48] |
| 0.4 nM | COC(=O)N[C@@H](C)CNc1nccc(-c2sc(C(C)(C)C)nc2-c2cc(Cl)cc(NS(C)(=O)=O)c2Cl)n1 [Example 49] |
| 0.056 nM | CCCS(=O)(=O)Nc1cc(Cl)cc(-c2nc(C3CC3)sc2-c2ccnc(N)n2)c1Cl [Example 50] |
| 0.08 nM | CCCS(=O)(=O)Nc1cc(Cl)cc(-c2nc(C3CC3)sc2-c2ccnc(NC)n2)c1Cl [Example 51] |
| 0.24 nM | CCCS(=O)(=O)Nc1cc(Cl)cc(-c2nc(C3CC3)sc2-c2ccnc(NC[C@H](C)NC(=O)OC)n2)c1Cl [Example 52] |
| 0.45 nM | CS(=O)(=O)Nc1cc(Cl)cc(-c2nc(C3CC3)sc2-c2ccnc(N)n2)c1Cl [Example 53] |
| 0.46 nM | CNc1nccc(-c2sc(C3CC3)nc2-c2cc(Cl)cc(NS(C)(=O)=O)c2Cl)n1 [Example 54] |
